According to US8354522B2, “Immunostimulatory oligoribonucleotides” (Coley Pharmaceutical GmbH, priority 2005, dated 2013):
Read-outs that look alike come from different tables or passages of the source.

System: Human PBMC
Assay: Cytokine production upon human PBMC stimulation (ORN complexed to DOTAP, 16 h, ELISA)
Type: cell-based
Design: key to IFN-alpha / TNF-alpha: +: cytokine production; −: no cytokine production
Details: for EC50 / IFN-alpha max activity / TNF-alpha max activity: ORN complexed to DOTAP, 16 h; for EC50: full titration 2 μM to 0.9 nM; for IFN-alpha max activity / TNF-alpha max activity: mean max activity at 0.6 μM, 3-6 blood donors; for IFN-alpha / TNF-alpha: human PBMC stimulated for 16 h, supernatant ELISA
Method: Human peripheral blood mononuclear cells (PBMCs) were isolated from healthy donors, plated, and stimulated in vitro with various test and control immunostimulatory agents for 16 hours. After 16 hours, the supernatants were collected and then analyzed by ELISA assay. N-U-R1-R2,-Containing Oligoribonucleotides were tested complexed to DOTAP and with full titration curves (7 concentrations), starting from 2 μM ORN complexed to 25 μg/ml DOTAP and with 1/3 dilution steps. Also included were certain negative controls, including medium alone and DOTAP (25 μg/ml culture well; “Liposomes”) alone. The control immunostimulatory agents included the imidazoquinoline R-848 (2 μM with 1/3 dilution steps and 7 concentrations) the reported ligand for TLR7, ORN having TLR8 motifs such as AU and AUU sequences (SEQ ID NO:13-SEQ ID NO:15) ORN having TLR7/8 motifs such as CU, GU and GUU sequences (SEQ ID NO:19-SEQ ID NO:23).
Human PBMC were stimulated with ORN complexed to DOTAP. After 16 hours supernatants were harvested and TNF-alpha and IFN-alpha levels were measured. Mean/Max activities at 0.6 μM of 3-6 blood donors and two individual experiments were determined. […] TLR8 and TLR7/8 ORN are divided by a red line.
Human PBMC were stimulated with ORN complexed to DOTAP. After 16 hours supernatants were harvested and IFN-alpha levels were measured. Mean/Max activities at 0.6 μM and EC50 of full titration curves (range: 2 μM to 0.9 nM) of 3-6 blood donors and two individual experiments were determined. […] Low EC50/high Max activity represents TLR7/8 ORN (FIG. 5a) whereas high EC50 and low Max activity represents TLR8 ORN (FIG. 5b).
The ORN sequences listed in Table 1 were tested for IFN-alpha and TNF-alpha production upon human PBMC stimulation. Human PBMC were stimulated for 16 h with the indicated ORN, and supernatants were harvested and cytokine production measured by ELISA. Table 2 summarizes the min/max activity and EC50 of ORN for IFN-alpha and TNF-alpha production.

[1] = human PBMC, read-out: IFN-alpha EC50
[2] = human PBMC, read-out: TNF-alpha EC50

Substance | EC50 [1] [nM] | EC50 [2] [nM] | IFN-alpha max activity (human PBMC) [pg/mL] | TNF-alpha max activity (human PBMC) [pg/mL] | IFN-alpha | TNF-alpha | IFN-alpha production upon PBMC stimulation (in words) (human PBMC) | TNF-alpha production upon PBMC stimulation (in words) (human PBMC)
C*C*G*A*G*C*C*G*C*U*U*A*A*C*C*C (CCGAGCCGCUUAACCC; listed as RNA, chemistry not fully specified) [SEQ ID NO: 49] | 375 | 350 | 3367 | 18039 |  |  |  | 
G*U*C*G*U*C*G*U*C*G*U*C*G*U*C*G*U*C*G*U (GUCGUCGUCGUCGUCGUCGU; listed as RNA, chemistry not fully specified) [SEQ ID NO: 26] |  |  |  |  | + | + |  | 
C*C*G*A*G*C*C*G*A*A*G*C*U*A*C*C (CCGAGCCGAAGCUACC; listed as RNA, chemistry not fully specified) [SEQ ID NO: 87] | > 2000 | 346 | 100.5 | 12979 |  |  |  | 
U*U*U*G*U*U*U*G*U*U*U*G*U*U*U*G*U*U*U*G (UUUGUUUGUUUGUUUGUUUG; listed as RNA, chemistry not fully specified) [SEQ ID NO: 22] |  |  |  |  | + | + |  | 
C*C*G*A*G*C*C*G*C*U*A*U*A*C*C*C (CCGAGCCGCUAUACCC; listed as RNA, chemistry not fully specified) [SEQ ID NO: 37] | ≥ 1500 | 750 | 240.5 | 22800 |  |  |  | 
C*C*G*A*G*C*C*G*C*A*U*U*A*C*C*C (CCGAGCCGCAUUACCC; listed as RNA, chemistry not fully specified) [SEQ ID NO: 48] | 750 | 801 | 543.4 | 9988 |  |  |  | 
C*C*G*A*G*C*C*G*A*U*G*U*U*A*C*C (CCGAGCCGAUGUUACC; listed as RNA, chemistry not fully specified) [SEQ ID NO: 66] | 558 | 51 | 1616 | 43098 |  |  |  | 
C*C*G*A*G*C*C*G*A*A*U*A*C*C*C*C (CCGAGCCGAAUACCCC; listed as RNA, chemistry not fully specified) [SEQ ID NO: 42] | ≥ 1500 | 395 | 392.4 | 17418 |  |  |  | 
U*U*U*U*G*U*U*U*U*G*U*U*U*U*G*U*U*U*U*G (UUUUGUUUUGUUUUGUUUUG; listed as RNA, chemistry not fully specified) [SEQ ID NO: 23] |  |  |  |  | + | + |  | 
C*C*G*A*G*C*C*G*A*U*U*C*T*A*C*C (CCGAGCCGAUUCNACC; Oligoribonucleotide, chemistry of T and the '*' linkage is not given here, further chemistry not given here) [SEQ ID NO: 75] | 1300 | 129 | 929.9 | 27576 |  |  |  | 
C*U*A*C*U*A*C*U*A*C*U*A*C*U*A*C*U*A*C*U (CUACUACUACUACUACUACU; listed as RNA, chemistry not fully specified) [SEQ ID NO: 24] |  |  |  |  | − | + | no IFN-alpha production | TNF-alpha inducing
G*U*A*G*U*A*G*U*A*G*U*A*G*U*A*G*U*A*G*U (GUAGUAGUAGUAGUAGUAGU; listed as RNA, chemistry not fully specified) [SEQ ID NO: 25] |  |  |  |  | + | + |  | 
U*U*I*U*U*I*U*U*I*U*U*I*U*U*I*U*U*I*U*U (UUNUUNUUNUUNUUNUUNUU; inosine, phosphorothioate linkages, chemistry not fully specified) [SEQ ID NO: 28] |  |  |  |  | + | + |  | 
C*C*G*A*G*C*C*G*A*A*U*G*U*A*C*C (CCGAGCCGAAUGUACC; listed as RNA, chemistry not fully specified) [SEQ ID NO: 63] | 1840 | 309 | 177.3 | 34219 |  |  |  | 
U*C*U*C*U*C*U (UCUCUCU; phosphorothioate linkages, chemistry not fully specified) [SEQ ID NO: 32] |  |  |  |  | + | + |  | 
G*U*G*U*G*U*G*U*G*U*G*U*G*U*G*U*G*U*G*U (GUGUGUGUGUGUGUGUGUGU; listed as RNA, chemistry not fully specified) [SEQ ID NO: 20] |  |  |  |  | + | + |  | 

Substance | EC50 [1] [nM] | EC50 [2] [nM] | IFN-alpha max activity (human PBMC) [pg/mL] | TNF-alpha max activity (human PBMC) [pg/mL] | IFN-alpha | TNF-alpha | IFN-alpha production upon PBMC stimulation (in words) (human PBMC) | TNF-alpha production upon PBMC stimulation (in words) (human PBMC)
C*C*G*A*G*C*C*G*A*A*U*C*C*C*C*C (CCGAGCCGAAUCCCCC; listed as RNA, chemistry not fully specified) [SEQ ID NO: 44] | ≥ 1500 | 321 | 305.6 | 19473 |  |  |  | 
C*C*G*A*G*C*C*G*A*U*U*G*A*A*C*C (CCGAGCCGAUUGAACC; listed as RNA, chemistry not fully specified) [SEQ ID NO: 76] | 1540 | 109 | 448.6 | 26371 |  |  |  | 
C*C*G*A*G*C*C*G*A*T*U*U*U*A*C*C (CCGAGCCGANUUUACC; Oligoribonucleotide, chemistry of T and the '*' linkage is not given here, further chemistry not given here) [SEQ ID NO: 59] | 74 | 224 | 1714 | 26762 |  |  |  | 
U*U*G*U*U*G*U (UUGUUGU; phosphorothioate linkages, chemistry not fully specified) [SEQ ID NO: 29] |  |  |  |  | + | + |  | 
G*U*A*G*U*A*G (GUAGUAG; phosphorothioate linkages, chemistry not fully specified) [SEQ ID NO: 34] |  |  |  |  | + | + |  | 
C*C*G*A*G*C*C*G*A*A*U*A*A*C*C*C (CCGAGCCGAAUAACCC; listed as RNA, chemistry not fully specified) [SEQ ID NO: 40] | ≥ 1500 | 352 | 235.3 | 18083 |  |  |  | 
C*C*G*A*G*C*C*G*C*A*U*A*A*C*C*C (CCGAGCCGCAUAACCC; listed as RNA, chemistry not fully specified) [SEQ ID NO: 41] | > 2000 | 897 | 97.97 | 10756 |  |  |  | 
C*C*G*A*G*C*C*A*U*A*U*A*U*A*U*C (CCGAGCCAUAUAUAUC; listed as RNA, chemistry not fully specified) [SEQ ID NO: 39] | ≥ 1500 | 324 | 356.7 | 19253 |  |  |  | 
U*U*A*G*G*C*A*C (UUAGGCAC; phosphorothioate linkages, chemistry not fully specified) [SEQ ID NO: 2] |  |  |  |  | − | + |  | 
C*C*G*A*G*C*C*G*A*A*G*C*U*G*C*C (CCGAGCCGAAGCUGCC; listed as RNA, chemistry not fully specified) [SEQ ID NO: 88] | > 2000 |  | 73.19 | 11996 |  |  |  | 
C*U*A*G*G*C*A*C (CUAGGCAC; phosphorothioate linkages, chemistry not fully specified) [SEQ ID NO: 3] |  |  |  |  | − | + |  | 
C*C*G*A*G*C*C*G*C*C*U*A*A*C*C*C (CCGAGCCGCCUAACCC; listed as RNA, chemistry not fully specified) [SEQ ID NO: 43] | > 2000 | 954 | 144.3 | 10261 |  |  |  | 
U*G*U*G*U*G*U (UGUGUGU; phosphorothioate linkages, chemistry not fully specified) [SEQ ID NO: 31] |  |  |  |  | + | + |  | 
A*A*A*U*A*A*A*U*A*A*A*U*A*A*A*U*A*A*A*U (AAAUAAAUAAAUAAAUAAAU; listed as RNA, chemistry not fully specified) [SEQ ID NO: 17] |  |  |  |  | − | + |  | 
A*A*A*A*U*A*A*A*A*U*A*A*A*A*U*A*A*A*A*U (AAAAUAAAAUAAAAUAAAAU; listed as RNA, chemistry not fully specified) [SEQ ID NO: 18] |  |  |  |  | − | + |  | 
